According to the SangsterLogP compilation:

| Structure (SMILES) | logP |
| --- | --- |
| N#Cc1cc(-c2ccncc2)cnc1NCCOCCO | 1.62 |
| N#Cc1cc(-c2ccncc2)cnc1NCCCCO | 1.93 |
| COCCCNc1ncc(-c2ccncc2)cc1C#N | 2.03 |
| COC(CNc1ncc(-c2ccncc2)cc1C#N)OC | 2.28 |
| N#Cc1cc(-c2ccncc2)cnc1Cl | 1.74 |
| N#Cc1cc(-c2ccncc2)cnc1N(CCO)CCO | 1.14 |
| CN(C)c1ncc(-c2ccncc2)cc1C#N | 2.13 |
| N#Cc1cc(-c2ccncc2)cnc1NCc1ccccc1 | 3.45 |
| N#Cc1cc(-c2ccncc2)cnc1N1CCCC1 | 2.95 |
| C=CCNc1ncc(-c2ccncc2)cc1C#N | 2.07 |

Second part, the compound after the results:

| logP | Structure (SMILES) |
| --- | --- |
| 2.33 | CCNc1ncc(-c2ccncc2)cc1C#N |
| 0.79 | CC(O)CNc1ncc(-c2ccncc2)cc1C#N (stereo not given) |
| 1.42 | N#Cc1cc(-c2ccncc2)cnc1NCCCO |
| 1.04 | CCC(CO)Nc1ncc(-c2ccncc2)cc1C#N (stereo not given) |
| 1.17 | N#Cc1cc(-c2ccncc2)cnc1NCCO |
